From article PMC13500670, “The U1 snRNP protein U1C and Helix H of U1 snRNA are critical for small molecule splicing modulator function” (Nature Communications, 2026)

Key:
[1] = target: T1, native U1 snRNP + SMN2 5' ss oligo (Homo sapiens, UniProt P09234); assay: FP: native U1 snRNP binding to SMN2 5' ss oligo with DMSO or compound; conditions: Fig. 1B; 10 μM branaplam
T1 construct: we added a large excess of full-length U1C (800 nM) expressed in and purified from E. coli; endogenous in cells; host or cells: HeLa-S3 with CRISPR knock-in of a C-terminal HTP tag on U1A; the added U1C came from E. coli
Experimental: (§1) We engineered a protein A-tag on U1A in HeLa cells using CRISPR-Cas9 and purified native U1 snRNP using the protein A tag and IgG resin (Supplementary Fig. 1A). […] Since U1C is weakly associated with U1 snRNP and may fall off at low U1 snRNP concentrations, we added a large excess of full-length U1C (800 nM) expressed in and purified from E. coli in all binding reactions unless otherwise stated.
(§2) U1A-HTP cells were adapted to grow in suspension in Joklik’s MEM (Sigma) supplemented with 5% (v/v) newborn calf serum and 1× Pluronic™ F-68 (Gibco). […]
(§3) All of 5′-FAM labeled RNA oligos used in this study were synthesized and purified by IDT (USA). Fluorescence polarization (FP) assays were performed in binding buffer (20 mM HEPES pH 7.5, 1 mM MgCl2, 200 mM KCl, 0.01% TritonX-100, 0.1%PEG3350, 2%DMSO) at room temperature using a Envision HTS Plate Reader system (Revvity). […] The equilibrium dissociation constants (Kd) of binding reaction were calculated using the following single-site binding model formula in GraphPad Prism: y=START+(END−START)x/kD+x where x and y represent the concentration of U1 snRNP (or U1 snRNA) and the polarization value measured respectively, START represents the polarization value of protein-free nucleic acid probe, END represents the maximum polarization value when U1 snRNP (or U1 snRNA) binds to the fluorescently labeled 5′ ss oligo. […]

[2] = target: T2, native U1 snRNP + HTT 5' ss oligo (Homo sapiens, UniProt P09234); assay: FP: native U1 snRNP binding to HTT 5' ss oligo; conditions: Fig. 1C; 10 μM branaplam
T2 construct: we added a large excess of full-length U1C (800 nM) expressed in and purified from E. coli; endogenous in cells; host or cells: HeLa-S3 with CRISPR knock-in of a C-terminal HTP tag on U1A; the added U1C came from E. coli
Experimental: as §1, §2, §3

[3] = tested on: 5' end of U1 snRNA + HTT 5' ss oligo with -1A deleted; assay: FP: 5' end of U1 snRNA + HTT 5' ss oligo with -1A deleted (Supplementary Fig. 5D); assay type: binding, human
Experimental: (§4) To ensure the presence of a −1A bulge in the RNA duplex, we extended the U1 snRNA to nucleotide 1–16 and generated an artificial HTT 5′ ss oligo that added 4 additional nucleotides upstream of the −4C nucleotide to ensure stable base pairing upstream of the potential −1A bulge.
as §3

[4] = tested on: full length U1 snRNA + HTT 5' ss oligo with -1A deleted; assay: FP: full-length U1 snRNA + HTT 5' ss oligo with -1A deleted (Supplementary Fig. 5E); assay type: binding, human
Experimental: as §4, §3

[5] = tested on: U1 snRNA nucleotide 1-16 + artificial HTT 5' ss oligo; assay: FP: U1 snRNA nucleotide 1-16 + artificial HTT 5' ss oligo with -1A bulge (Supplementary Fig. 5F); assay type: binding, human
Experimental: as §4, §3

[6] = tested on: SMN2 pre-mRNA + native or reconstituted U1 snRNP; assay: Pull-down of native or reconstituted U1 snRNP by immobilized SMN2 pre-mRNA; assay type: binding, human; conditions: Fig. 1F; 50 μM Branaplam vs 0.5% DMSO
Text: In this assay, we immobilized Minx (as a positive control with a canonical 5′ ss) or SMN2 pre-mRNA containing the weak 5′ ss of exon 7 on amylose resin, pulled down either native or reconstituted U1 snRNP, and analyzed the RNAs in the pulldown samples as a surrogate of the amount of U1 snRNP bound to the pre-mRNA.
The SMN2 pre-mRNA fragment used in pull down experiment contains 100 nt up and downstream of the 5′ ss of SMN2 intron 7 followed by three copies of MS2 tag. It was cloned downstream of a T7 promoter in the Sp72 vector. The SMN2 pre-mRNA was in vitro transcribed and purified by 7 M Urea denaturing gel.
The complex was then incubated with amylose resin and washed with the same buffer. The resins were treated in 5 μl buffer containing 1 mg/ml proteinase K at 37 °C for 30 min to release the RNAs. The resulting samples were run on 6% denaturing polyacrylamide gel and stained with Sybr Gold to visualize the RNAs.

[7] = tested on: SMN2 exon 7 skipping, HEK293T cells; assay: SMN2 splicing minigene reporter assay (luciferase); assay type: cell-based; conditions: Homo sapiens, HEK-293T, Fig. 3A, 36 h, 0.012 to 9 µM
Experimental: Exon 7 inclusion places the GLuc gene out of frame, thereby reducing luciferase activity. […] Transfection was performed in 10 cm dishes using Lipofectamine 2000 (Thermo, #11668019) according to the manufacturer’s protocol. […] Compounds were dispensed in duplicate across a 1:3 serial dilution series ranging from 0.012 to 9 µM. Following a 36 h incubation at 37 °C, luciferase activity was assessed by adding 12 µL of a custom luciferase reagent to each well. The luciferase reagent (12 mL total volume) consisted of 60 µL 50× coelenterazine substrate (Nanolight, #320), 3 mL Nanolight GLuc buffer, 30 µL 10% Triton X-100 (Thermo, #A16046.AP), and 8.9 mL deionized water. Plates were shaken at 600 rpm for 6 min, and luminescence was measured using a Cytation 5 multimode plate reader (BioTek). Half-maximal effective concentration (EC50) values were calculated using GraphPad Prism (v10.4) with four-parameter nonlinear regression curve fitting.

[8] = tested on: cassette exon / GA/GU iExon inclusion, HEK293 cells, scr siRNA; assay: RNA-seq splicing analysis, compound dose response, scrambled (mock) siRNA; assay type: cell-based, human
Text: (§5) Skipped exons are highly enriched for noncanonical 5′ ss sequences (on either the intronic or exonic side), which account for 90% of skipped exons (Supplementary Fig. 8C). For example, among skipped exons with a canonical exonic 5′ ss sequence, 74% contain noncanonical intron sequence. These observations are consistent with the previous published role for U1C stabilization of the U1 snRNA-pre-mRNA duplex at the 5′ ss[25]–[28]. […] We will refer to these as class I exons for clarity in later discussion.
(§6) We next examined the effect of U1C knockdown on compound-mediated splicing. […] We next used the complete dose response to calculate the effective concentration at which deltaPSIcompound-DMSO is 30 (EC-dPSI30).
(§7) HEK293T cells were grown in DMEM media with 10% FBS. 500,000 cells in 1.75 mL of media were plated into a 6-well plate for approximately 6 h. Either siRNA negative control (ThermoFisher Silencer^TM Negative control #2, AM4613) or U1C siRNA (ThermoFisher Silencer^TM Select Pre-designed siRNA, S13225) were transfected for a final concentration of 25 nM using Invitrogen Lipofectamine RNAiMax (13778-150). In brief, 10 μL 5 μM siRNA was added to 115 μL of OptiMEM, while 5 μL Lipofectamine added to 120 μL OptiMEM for 5 minu before mixing the solutions and incubating for 20 min. 250 μL of Lipofectamine:siRNA solution was gentle added to the 1.75 mL cells. After 24 h post-transfection, cells were treated with 10 μL compound resuspended in DMSO. […] Each compound-treated experimental condition was treated and collected in duplicate, while four DMSO only treated samples per siRNA transfection were collected. RNA was isolated using KingFisher^TM Apex instrument and the MagMAX™ mirVana™ Total RNA Isolation Kit (A27828) by Thermo Fisher according to manufacturer’s protocol. Isolated RNA was submitted to Admera Health for library preparation (polyA selected, stranded) and mRNA-sequencing and >20 M 150 bp pair-end reads were returned.
RNAseq and splicing analysis were described earlier using DEDseq (https:// github.com/liwc01/DEDSeq[18]) with minor modifications. RNA sequencing reads were mapped to human genome (hg19) using STAR (version 2.7.10b); only uniquely mapped reads (with MAPQ > 10) with <5 nt/100 nt mismatches and properly paired reads were used. For splicing analysis, all junction reads (read with a gap in alignment indicating splicing) were used, including the ones mapped to unannotated splice sites. Reads were counted for different exons (for cassette exon [CE]) or exonic regions (for A5′ss or A3′ss). For each splicing event, a percent-spliced-in (PSI) value was calculated using the percent of average read number supporting the inclusion among all reads supporting either the inclusion or the exclusion. A minimum of 10 for the denominator of PSI calculation was required. Otherwise, a “NA” value would be generated. PSI values for biological replicates were averaged, and the PSI difference between the two treatment groups was calculated. For a statistical test, a 2 × 2 read counts table was made for each event, with rows for reads supporting inclusion or exclusion, and columns for the two comparing sample groups. Fisher’s exact test was used for the statistical tests. For biological replicates, each pair of the testing and control sample was analyzed by Fisher’s exact test and the geometric mean of all P-values was reported as a final P-value. PSI change (deltaPSI) of >10% (or < −10%) and P < 0.001 was used to select splicing events being regulated by the treatment. PSI calculation, Fisher’s exact test were performed using R (4.0.5). 5′ ss composition analysis was performed as described in ref. [25]. Potency of splicing modulator was determined by plotting dPSI and identifying the concentration at which the change in PSI reached 30% and reported as EC_dPSI30.

[9] = tested on: cassette exon / GA/GU iExon inclusion, HEK293 cells, U1C KD; assay: RNA-seq splicing analysis, compound dose response, U1C knockdown; assay type: cell-based, human
Text: as §5, §6, §7
RNAseq and splicing analysis were described earlier using DEDseq (https:// github.com/liwc01/DEDSeq[18]) with minor modifications. RNA sequencing reads were mapped to human genome (hg19) using STAR (version 2.7.10b); only uniquely mapped reads (with MAPQ > 10) with <5 nt/100 nt mismatches and properly paired reads were used. For splicing analysis, all junction reads (read with a gap in alignment indicating splicing) were used, including the ones mapped to unannotated splice sites. Reads were counted for different exons (for cassette exon [CE]) or exonic regions (for A5′ss or A3′ss). For each splicing event, a percent-spliced-in (PSI) value was calculated using the percent of average read number supporting the inclusion among all reads supporting either the inclusion or the exclusion. A minimum of 10 for the denominator of PSI calculation was required. Otherwise, a “NA” value would be generated. PSI values for biological replicates were averaged, and the PSI difference between the two treatment groups was calculated. For a statistical test, a 2 × 2 read counts table was made for each event, with rows for reads supporting inclusion or exclusion, and columns for the two comparing sample groups. […] For biological replicates, each pair of the testing and control sample was analyzed by Fisher’s exact test and the geometric mean of all P-values was reported as a final P-value. […] Potency of splicing modulator was determined by plotting dPSI and identifying the concentration at which the change in PSI reached 30% and reported as EC_dPSI30.

[10] = tested on: c12orf4 iExon 1a, DENND4A, SCO1, DPH1 iExon inclusion; assay: End-point RT-PCR of iExon inclusion, scr control versus U1C KD; assay type: cell-based, human; conditions: c12orf4 iExon 1a and DENND4A; 3uM, 1uM, 250nm, 100nM
Experimental: A total of 500,000 SH-SY5Y cells were plated in 6-well tissue culture plates. After 4 h of recovery, cells were transfected with final 100 nM siRNA (silencer select s13212 or negative control No.2 from Ambion) using Lipofectamin RNAi Max (ThermoFisher) according to the manufacturer’s protocol. After 24 h incubation, cells were treated with splicing modulating compounds for additional 24 h. Cells were lysed in RLT buffer ( + beta-mercaptoethanol) and RNA was extracted using the RNeasy kit (Qiagen) according to the manufacturer’s protocol.
Knockdown was confirmed by RT-qPCR using TaqMan assays (Hs00863364_gH, Hs02758991_g1, from ThermoFisher). Splicing changes were confirmed by endpoint PCR using the primer sets listed in Supplementary Table 1. Relative amounts of U1C RNA were calculated for control knockdown vs. U1C knockdown (normalized to GAPDH expression level).
HEK293 cells were transfected for siRNA in 6-well plates, similarly as for RNA-sequencing above. […] Overexpression of 1.5 μg pMEV-2HA-EV or pMEV-U1C-2HA was carried out with Lipofectamine3000 (L3000008) 6 h later. RNA was harvested 24 h later, extracted as above, and reverse transcribed with a Qiagen QuantiTect RT kit (205311). […]

[11] = tested on: splicing events in human SH-SY5Y cells; conditions: 24 nM (approximately 2 times the IC50 for HTT), 24 h; cited from earlier work
[12] = target: short RNA duplex of 5' ss (11 nt) and U1 snRNA (11 nt); conditions: NMR construct without other U1 snRNP components; read-out: Kd between the compound and the short RNA duplex; cited from earlier work

increase of binding affinity by compound versus DMSO [1] | increase of binding affinity by compound versus DMSO [2] | effect of compound on binding [3] | effect of compound on binding [4] | effect of compound on binding affinity [5] | effect of U1C knockdown on compound potency by end-point PCR [10] | SMILES | amount of native or reconstituted U1 snRNP pulled down by SMN2 pre-mRNA [6] | EC50 [7] [nM] | PSI of CMSS1 iExon ([8]; 5nM branaplam) | PSI of WNK4 iExon ([8]; 5nM branaplam) | PSI of PDXDC1 iExon ([8]; 5nM, mock, DMSO baseline […]) [PSI] | geomean pEC_dPSI30 for all GA/GU iExons ([8]; Fig. 8C, mock knockdown, -log10 of compound concentration when dPSI achieves 30%) | number of exons with GA/GU 5' ss significantly induced with deltaPSI compound-DMSO >10 ([8]; highest concentration of branaplam) | saturation PSI of PDXDC1 iExon ([8]; highest dose, mock and U1C KD reach similar saturation) | PSI of PDXDC1 iExon ([9]; 5nM, U1C KD, DMSO baseline […]) [PSI] | U1CKD Log10 effect ([9]; Fig. 8C picture, pEC-dPSI30 mock versus U1C KD) | geomean pEC_dPSI30 for all GA/GU iExons ([9]; Fig. 8C, U1C KD) | number of splicing events affected [11] | Kd [12] [µM]
about twofold | about twofold | not improved | not improved | no effect | reduces | CC1(C)CC(Oc2ccc(-c3ccc(-c4cn[nH]c4)cc3O)nn2)CC(C)(C)N1 [Branaplam, branaplam] | significantly increased | 59.6 | 6 | 6.7 | 2.9 | 6.61 | approximately 1200 | ~50 | 2.6 | -0.51 | 6.10 | 165 | –
– | – | – | – | – | – | Cc1cn2cc(-c3cc(=O)n4cc(N5CCN(C)CC5)ccc4n3)cc(F)c2n1 [SMN-C5] | – | – | – | – | – | – | – | – | – | – | – | – | 28
